Earlier results in patent US20050271673A1, “Trifunctional reagent for conjugation to a biomolecule” (priority 1998, published 2005).

What was measured:
streptavidin = streptavidin (Streptomyces avidinii, UniProt P22629); conditions: association constant; Green 1990, 1975
avidin = avidin (Gallus gallus, UniProt P02701); conditions: association constant; Green 1990, 1975
Sequence of avidin (P02701 25-152, species assumed): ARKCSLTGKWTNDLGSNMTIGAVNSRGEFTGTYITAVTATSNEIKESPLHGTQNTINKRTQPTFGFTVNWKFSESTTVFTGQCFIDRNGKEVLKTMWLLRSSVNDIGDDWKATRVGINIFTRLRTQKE

Sequence of streptavidin (P22629 25-183, species assumed): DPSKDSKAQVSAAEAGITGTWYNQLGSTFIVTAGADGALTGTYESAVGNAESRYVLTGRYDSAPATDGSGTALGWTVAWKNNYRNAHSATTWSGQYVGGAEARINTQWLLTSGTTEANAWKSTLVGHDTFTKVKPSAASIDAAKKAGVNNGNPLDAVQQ

Which results are given for `O=C(O)CCCC[C@@H]1SC[C@@H]2NC(=O)N[C@@H]21` [biotin]?
K (binding constant of biotin with streptavidin) (streptavidin): 1013 to 1015 M⁻¹; K (binding constant of biotin with avidin) (avidin): 1013 to 1015 M⁻¹
